Reference: patent US20210032257A1, “(E)-1-(4-(DIMETHYLAMINO)BUT-2-ENOYL)PYRROLIDIN-3-YL 4-((3-ISOPROPYL-5-METHYLPYRAZOLO[1,5-A]PYRIMIDIN-7-YL)AMINO)PIPERIDINE-1-CARBOXYLATE FOR INHIBITING CDK7” (Eli Lilly and Company, priority 2017, published 2021)

What was measured:
Assay in all cases: Biomarker study proliferation (CellTiter-Glo)
Type in all cases: cell-based
COLO320 = test system: COLO320
Method in brief: (§1)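 Profiling across cell lines annotated for ARID1A, KMT2C, KMT2D or RB1 alterations used CellTiter-Glo viability after 7 days' treatment. Responses were classed insensitive, cytostatic or cytotoxic using IC50 1 μM and 70% inhibition cut-offs.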

DMS114 = test system: DMS114
Method in brief: as §1

DMS53 = test system: DMS53
Method in brief: as §1

HGC27 = test system: HGC27
Method in brief: as §1

KLE = test system: KLE
Method in brief: as §1

MDAMB231 = test system: MDAMB231
Method in brief: as §1

MDAPCA2B = test system: MDAPCA2B
Method in brief: as §1

MKN74 = test system: MKN74
Method in brief: as §1

NCIH1734 = test system: NCIH1734
Method in brief: as §1

NCIH441 = test system: NCIH441
Method in brief: as §1

NCIH446 = test system: NCIH446
Method in brief: as §1

NCIH524 = test system: NCIH524
Method in brief: as §1

OAW42 = test system: OAW42
Method in brief: as §1

SNU308 = test system: SNU308
Method in brief: as §1

SNU387 = test system: SNU387
Method in brief: as §1

THP1 = test system: THP1
Method in brief: as §1

TOV112D = test system: TOV112D
Method in brief: as §1

UACC812 = test system: UACC812
Method in brief: as §1

[1] = Homo sapiens, 168 h, read-out: Anti-proliferation effect IC50

Cc1cc(NC2CCN(C(=O)O[C@H]3CCN(C(=O)/C=C/CN(C)C)C3)CC2)n2ncc(C(C)C)c2n1 [Example 1, [(3S)-1-[(E)-4-(dimethylamino)but-2-enoyl]pyrrolidin-3-yl] 4-[(3-isopropyl-5-methyl-pyrazolo[1,5-a]pyrimidin-7-yl)amino]piperidine-1-carboxylate]
Anti-proliferation effect % Inh. (COLO320; COLO320, INTESTINE, 7 days): 73%
Anti-proliferation effect Outcome (COLO320; COLO320, INTESTINE, 7 days): Cytotoxic (cytotoxic (IC50<1 μM and % inhibition ≥70%))
IC50 (COLO320; Homo sapiens, COLO 320, 168 h, read-out: Anti-proliferation effect IC50): 189 nM
Anti-proliferation effect % Inh. (DMS114; DMS114, LUNG, 7 days): 65%
Anti-proliferation effect Outcome (DMS114; DMS114, LUNG, 7 days): Cytostatic (cytostatic (IC50<1 μM and % inhibition <70%))
IC50 (DMS114; Homo sapiens, DMS-114, 168 h, read-out: Anti-proliferation effect IC50): 14 nM
Anti-proliferation effect % Inh. (DMS53; DMS53, LUNG, 7 days): 66%
Anti-proliferation effect Outcome (DMS53; DMS53, LUNG, 7 days): Cytostatic (cytostatic (IC50<1 μM and % inhibition <70%))
IC50 (DMS53; Homo sapiens, DMS-53, 168 h, read-out: Anti-proliferation effect IC50): 118 nM
Anti-proliferation effect % Inh. (HGC27; HGC27, STOMACH, 7 days): 78%
Anti-proliferation effect Outcome (HGC27; HGC27, STOMACH, 7 days): Cytotoxic (cytotoxic (IC50<1 μM and % inhibition ≥70%))
IC50 (HGC27; Homo sapiens, HGC-27, 168 h, read-out: Anti-proliferation effect IC50): 68 nM
Anti-proliferation effect % Inh. (KLE; ENDOMETRIUM, 7 days): 65%
Anti-proliferation effect Outcome (KLE; ENDOMETRIUM, 7 days): Cytostatic (cytostatic (IC50<1 μM and % inhibition <70%))
IC50 (KLE; [1]): 28 nM
IC50 (MDAMB231; Homo sapiens, MDA-MB-231, 168 h, read-out: Anti-proliferation effect IC50): 2820 nM
Anti-proliferation effect % Inh. (MDAMB231; MDAMB231, BREAST, 7 days): 23%
Anti-proliferation effect Outcome (MDAMB231; MDAMB231, BREAST, 7 days): Insensitive (insensitive (IC50≥1 μM))
IC50 (MDAPCA2B; MDA-PCa-2b, 168 h, read-out: Anti-proliferation effect IC50): 6270 nM
Anti-proliferation effect % Inh. (MDAPCA2B; MDAPCA2B, PROSTATE, 7 days): 17%
Anti-proliferation effect Outcome (MDAPCA2B; MDAPCA2B, PROSTATE, 7 days): Insensitive (insensitive (IC50≥1 μM))
IC50 (MKN74; Homo sapiens, MKN-74, 168 h, read-out: Anti-proliferation effect IC50): 73 nM
Anti-proliferation effect % Inh. (MKN74; MKN74, STOMACH, 7 days): 71%
Anti-proliferation effect Outcome (MKN74; MKN74, STOMACH, 7 days): Cytotoxic (cytotoxic (IC50<1 μM and % inhibition ≥70%))
IC50 (NCIH1734; Homo sapiens, NCI-H1734, 168 h, read-out: Anti-proliferation effect IC50): 24 nM
Anti-proliferation effect % Inh. (NCIH1734; NCIH1734, LUNG, 7 days): 76%
Anti-proliferation effect Outcome (NCIH1734; NCIH1734, LUNG, 7 days): Cytotoxic (cytotoxic (IC50<1 μM and % inhibition ≥70%))
IC50 (NCIH441; Homo sapiens, NCI-H441, 168 h, read-out: Anti-proliferation effect IC50): 14 nM
Anti-proliferation effect % Inh. (NCIH441; NCIH441, LUNG, 7 days): 84%
Anti-proliferation effect Outcome (NCIH441; NCIH441, LUNG, 7 days): Cytotoxic (cytotoxic (IC50<1 μM and % inhibition ≥70%))
IC50 (NCIH446; Homo sapiens, NCI-H446, 168 h, read-out: Anti-proliferation effect IC50): 13 nM
Anti-proliferation effect % Inh. (NCIH446; NCIH446, LUNG, 7 days): 95%
Anti-proliferation effect Outcome (NCIH446; NCIH446, LUNG, 7 days): Cytotoxic (cytotoxic (IC50<1 μM and % inhibition ≥70%))
IC50 (NCIH524; Homo sapiens, NCI-H524, 168 h, read-out: Anti-proliferation effect IC50): 37 nM
Anti-proliferation effect % Inh. (NCIH524; NCIH524, LUNG, 7 days): 92%
Anti-proliferation effect Outcome (NCIH524; NCIH524, LUNG, 7 days): Cytotoxic (cytotoxic (IC50<1 μM and % inhibition ≥70%))
IC50 (OAW42; Homo sapiens, OAW-42, 168 h, read-out: Anti-proliferation effect IC50): 136 nM
Anti-proliferation effect % Inh. (OAW42; OAW42, OVARY, 7 days): 88%
Anti-proliferation effect Outcome (OAW42; OAW42, OVARY, 7 days): Cytotoxic (cytotoxic (IC50<1 μM and % inhibition ≥70%))
IC50 (SNU308; 168 h, read-out: Anti-proliferation effect IC50): 184 nM
Anti-proliferation effect % Inh. (SNU308; SNU308, BILIARY, 7 days): 61%
Anti-proliferation effect Outcome (SNU308; SNU308, BILIARY, 7 days): Cytostatic (cytostatic (IC50<1 μM and % inhibition <70%))
IC50 (SNU387; Homo sapiens, SNU-387, 168 h, read-out: Anti-proliferation effect IC50): > 10000 nM
Anti-proliferation effect % Inh. (SNU387; SNU387, LIVER, 7 days): 12%
Anti-proliferation effect Outcome (SNU387; SNU387, LIVER, 7 days): Insensitive (insensitive (IC50≥1 μM))
IC50 (THP1; Homo sapiens, THP-1, 168 h, read-out: Anti-proliferation effect IC50): 42 nM
Anti-proliferation effect % Inh. (THP1; THP1, BLOOD, 7 days): 81%
Anti-proliferation effect Outcome (THP1; THP1, BLOOD, 7 days): Cytotoxic (cytotoxic (IC50<1 μM and % inhibition ≥70%))
IC50 (TOV112D; [1]): 25 nM
Anti-proliferation effect % Inh. (TOV112D; OVARY, 7 days): 81%
Anti-proliferation effect Outcome (TOV112D; OVARY, 7 days): Cytotoxic (cytotoxic (IC50<1 μM and % inhibition ≥70%))
IC50 (UACC812; Homo sapiens, UACC-812, 168 h, read-out: Anti-proliferation effect IC50): 76 nM
Anti-proliferation effect % Inh. (UACC812; UACC812, BREAST, 7 days): 58%
Anti-proliferation effect Outcome (UACC812; UACC812, BREAST, 7 days): Cytostatic (cytostatic (IC50<1 μM and % inhibition <70%))
